Biological target: T1, interaction between biotinylated human S100A9 and human RAGE-Fc (Homo sapiens, UniProt P06702)
T1 construct: made in house; host or cells: E. coli BL21(DE3)/pET1120 (pLR757)
T1 sequence (P06702 1-114): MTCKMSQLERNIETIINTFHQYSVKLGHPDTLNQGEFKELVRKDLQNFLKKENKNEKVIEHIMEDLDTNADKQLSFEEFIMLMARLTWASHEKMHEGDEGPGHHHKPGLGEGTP
Test: AlphaScreen inhibition assay, Biot-hS100A9:hRAGE-Fc (S100A9-RAGE inhibition assay)
Type: binding
Conditions: biot-hS100A9 and rhRAGE-Fc, Ca2+ and Zn2+ in buffer
How it was run: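 Biotinylated human S100A9, in HBS-P with CaCl2 and ZnCl2, preincubated 1 h at room temperature in the dark with compound (final DMSO ≤1.25%), then combined with rhRAGE-Fc on protein A Acceptor beads plus streptavidin Donor beads (20 μg/mL each). Protein levels batch-dependent; percent inhibition from AlphaScreen signal vs DMSO-only control.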

IC50 [nM]	Compound
400	CS(=O)(=O)NC(=O)c1cccc2c1nc1n2C(NC(=O)CCC2CCCC2)(C(F)(F)F)C(=O)N1 (stereo not shown) [Example 166, 3-(3-cyclopentylpropanamido)-N-methanesulfonyl-4-oxo-3-(trifluoromethyl)-2,5,7-triazatricyclo[6.4.0.0^2,6]dodeca-1(12),6,8,10-tetraene-9-carboxamide]
580	COc1ccc(-c2cccc3c2nc2n3C(NC(=O)CCC3CCCC3)(C(F)(F)F)C(=O)N2)cc1 (stereo not shown) [Example 186, 3-cyclopentyl-N-[9-(4-methoxyphenyl)-4-oxo-3-(trifluoromethyl)-2,5,7-triazatricyclo[6.4.0.0^2,6]dodeca-1(12),6,8,10-tetraen-3-yl]propanamide]
940	COc1ccc(-c2cccc3c2nc2n3C(NC(=O)CCC3CCCC3)(C(F)(F)F)C(=O)N2)cn1 (stereo not shown) [Example 188, 3-cyclopentyl-N-[9-(6-methoxypyridin-3-yl)-4-oxo-3-(trifluoromethyl)-2,5,7-triazatricyclo[6.4.0.0^2,6]dodeca-1(12),6,8,10-tetraen-3-yl]propanamide]
1490	CC(C)(C)c1ccc(-c2cccc3c2nc2n3C(NC(=O)CCC3CCCC3)(C(F)(F)F)C(=O)N2)cc1 (stereo not shown) [Example 191, N-[9-(4-tert-butylphenyl)-4-oxo-3-(trifluoromethyl)-2,5,7-triazatricyclo[6.4.0.0^2,6]dodeca-1(12),6,8,10-tetraen-3-yl]-3-cyclopentylpropanamide]
1560	O=C(CCC1CCCC1)NC1(C(F)(F)F)C(=O)Nc2nc3c(-c4ccc([N+](=O)[O-])cc4)cccc3n21 (stereo not shown) [Example 193, 3-cyclopentyl-N-[9-(4-nitrophenyl)-4-oxo-3-(trifluoromethyl)-2,5,7-triazatricyclo[6.4.0.0^2,6]dodeca-1(12),6,8,10-tetraen-3-yl]propanamide]
1270	O=C(CCC1CCCC1)NC1(C(F)(F)F)C(=O)Nc2nc3c(-c4ccccc4)cccc3n21 (stereo not shown) [Example 195, 3-cyclopentyl-N-[4-oxo-9-phenyl-3-(trifluoromethyl)-2,5,7-triazatricyclo[6.4.0.0^2,6]dodeca-1(12),6,8,10-tetraen-3-yl]propanamide]
1970	O=C(CCC1CCCC1)NC1(C(F)(F)F)C(=O)Nc2nc3c(-c4ccccc4O)cccc3n21 (stereo not shown) [Example 198, 3-cyclopentyl-N-[9-(2-hydroxyphenyl)-4-oxo-3-(trifluoromethyl)-2,5,7-triazatricyclo[6.4.0.0^2,6]dodeca-1(12),6,8,10-tetraen-3-yl]propanamide]
850	O=C(CCC1CCCC1)NC1(C(F)(F)F)C(=O)Nc2nc3c(-c4ccc(Cl)cc4)cccc3n21 (stereo not shown) [Example 201, N-[9-(4-chlorophenyl)-4-oxo-3-(trifluoromethyl)-2,5,7-triazatricyclo[6.4.0.0^2,6]dodeca-1(12),6,8,10-tetraen-3-yl]-3-cyclopentylpropanamide]
700	Cc1ccc(-c2cccc3c2nc2n3C(NC(=O)CCC3CCCC3)(C(F)(F)F)C(=O)N2)cc1 (stereo not shown) [Example 202, 3-cyclopentyl-N-[9-(4-methylphenyl)-4-oxo-3-(trifluoromethyl)-2,5,7-triazatricyclo[6.4.0.0^2,6]dodeca-1(12),6,8,10-tetraen-3-yl]propanamide]
1340	O=C(CCC1CCCC1)NC1(C(F)(F)F)C(=O)Nc2nc3c(-c4ccc(Cl)c(Cl)c4)cccc3n21 (stereo not shown) [Example 203, 3-cyclopentyl-N-[9-(3,4-dichlorophenyl)-4-oxo-3-(trifluoromethyl)-2,5,7-triazatricyclo[6.4.0.0^2,6]dodeca-1(12),6,8,10-tetraen-3-yl]propanamide]

More lines, now with the values behind:

Compound	IC50 [nM]
O=C(CCC1CCCC1)NC1(C(F)(F)F)C(=O)Nc2nc3c(F)c(Br)ccc3n21 (stereo not shown) [Example 177, N-[10-bromo-9-fluoro-4-oxo-3-(trifluoromethyl)-2,5,7-triazatricyclo[6.4.0.0^2,6]dodeca-1(12),6,8,10-tetraen-3-yl]-3-cyclopentylpropanamide]	1630
O=C(CCC1CCCC1)NC1(C(F)(F)F)C(=O)Nc2nc3c(Br)cc(Cl)cc3n21 (stereo not shown) [Example 181, N-[9-bromo-11-chloro-4-oxo-3-(trifluoromethyl)-2,5,7-triazatricyclo[6.4.0.0^2,6]dodeca-1(12),6,8,10-tetraen-3-yl]-3-cyclopentylpropanamide]	1450
CC(=O)c1cc(Cl)cc2c1nc1n2C(NC(=O)CCC2CCCC2)(C(F)(F)F)C(=O)N1 (stereo not shown) [Example 182, N-[9-acetyl-11-chloro-4-oxo-3-(trifluoromethyl)-2,5,7-triazatricyclo[6.4.0.0^2,6]dodeca-1(12),6,8,10-tetraen-3-yl]-3-cyclopentylpropanamide]	1120
COc1cccc(-c2cccc3c2nc2n3C(NC(=O)CCC3CCCC3)(C(F)(F)F)C(=O)N2)c1 (stereo not shown) [Example 189, 3-cyclopentyl-N-[9-(3-methoxyphenyl)-4-oxo-3-(trifluoromethyl)-2,5,7-triazatricyclo[6.4.0.0^2,6]dodeca-1(12),6,8,10-tetraen-3-yl]propanamide]	950
O=C(CCC1CCCC1)NC1(C(F)(F)F)C(=O)Nc2nc3c(-c4nnn[nH]4)cccc3n21 (stereo not shown) [Example 199, 3-cyclopentyl-N-[4-oxo-9-(1H-1,2,3,4-tetrazol-5-yl)-3-(trifluoromethyl)-2,5,7-triazatricyclo[6.4.0.0^2,6]dodeca-1(12),6,8,10-tetraen-3-yl]propanamide]	920
CSc1ccc(-c2cccc3c2nc2n3C(NC(=O)CCC3CCCC3)(C(F)(F)F)C(=O)N2)cc1 (stereo not shown) [Example 232, 3-cyclopentyl-N-{9-[4-(methylsulfanyl)phenyl]-4-oxo-3-(trifluoromethyl)-2,5,7-triazatricyclo[6.4.0.0^2,6]dodeca-1(12),6,8,10-tetraen-3-yl}propanamide]	540
O=C(CCC1CCCC1)NC1(C(F)(F)F)C(=O)Nc2nc3c(C(=O)O)cc(Cl)cc3n21 (stereo not shown) [Example 233, 11-chloro-3-(3-cyclopentylpropanamido)-4-oxo-3-(trifluoromethyl)-2,5,7-triazatricyclo[6.4.0.0^2,6]dodeca-1(12),6,8,10-tetraene-9-carboxylic acid]	490
CCCC(=O)NC1(C(F)(F)F)C(=O)Nc2nc3c(-c4ccc(OC)cc4)cccc3n21 (stereo not shown) [Example 234, N-[9-(4-methoxyphenyl)-4-oxo-3-(trifluoromethyl)-2,5,7-triazatricyclo[6.4.0.0^2,6]dodeca-1(12),6,8,10-tetraen-3-yl]butanamide]	920
CC(C)CNc1nc(C(=O)NC2(C(F)(F)F)C(=O)Nc3nc4cc(Cl)c(Cl)cc4n32)cs1 (stereo not shown) [Example 237, N-[10,11-dichloro-4-oxo-3-(trifluoromethyl)-2,5,7-triazatricyclo[6.4.0.0^2,6]dodeca-1(12),6,8,10-tetraen-3-yl]-2-[(2-methylpropyl)amino]-1,3-thiazole-4-carboxamide]	1810
